According to US9175036B2, “Antimicrobial water treatment membranes and production thereof” (BEN-GURION UNVERSITY OF THE NEGEV RESEARCH AND DEVELOPMENT …, priority 2009, dated 2015):
≈ marks a conversion by molar mass, not a printed value. Read-outs that look alike come from different tables or passages of the source. Square brackets hold non-standard residues; d marks the D form. Peptide text beside a SMILES is read from it. Ahx = NCCCCCC(=O)O

Test system: Enterobacter
Type: cell-based
Procedure: The IC50 is determined by an essay, suitable for the specific film-forming microorganism in question. For example, in the present invention, the Enterobacter assay, which is described in detail in the methods section below, was used to determine the antimicrobial activities of the tested peptides.
Quantitative Biofilm Growth Inhibition Assay in a 96-Wells Microtiter Plate:
Enterobacter culture (50 ml) was grown in tryptic soy broth media (TBS; prepared according to manufacturer instructions) overnight at 25° C. On the next day the turbidity of the culture was measured at 600 nm (Biomate 5 UV-Vis spectrophotometer, Thermo Fisher Scientific, Waltham, Mass.) and, if necessary, TSB was added to dilute the culture until the OD was 1.
Then 96 wells polystyrene microtiter plates (flat bottom, transparent, Becton Dickinson, Franklin Lakes, New-Jersey) were filled as following: Negative control wells (without bacteria) were filled with 125 μl TSB media and 25 μl of DDW:PBS1:1 buffer solution; Positive control wells (without peptide solution) were filled with 110 μl TSB media, 25 μl of DDW:PBS1:1 buffer solution and 15 μl of Enterobacter culture solution; Wells that contained AMPs at different concentrations were filled with 110 μl TSB media, 25 μl of peptide solution and 15 μl of Enterobacter culture solution.
The plates were incubated at 25° C. overnight. On the next day the plates were gently rinsed 5 times with distilled water to remove the planktonic bacteria and then dried at room temperature for 10 minutes. Then the biofilm on the walls of the wells was dyed by adding 200 μl, of 3% crystal violet (CV) to the wells. After 15 minutes at room temperature, the plates were gently rinsed 5 times with distilled water to remove excess dye and dried at room temperature for 10 minutes (Djordjevic, Wiedmann & McLandsborough 2002). The dry plates were filled with 200 μl ethanol, covered and gently agitated (Duomax 1030 rocking platform shaker, Heidolph, Kelheim, Germany) for 1 hour. The absorbance of extracted color was measured in a plate reading spectrophotometer (Infinite M200, Tecan, Mannedorf, Switzerland) at 595 nm.
The effect of linking the arm to a peptide, on the antimicrobial activity of the peptides was assessed by measuring the peptide activity in 96-microtitter plates in solution and comparing to activities of the normal peptides. Experiments were performed in water and in 3% NaCl solution. Table 6 presents the antimicrobial activity (IC50) of peptide-arm systems, in water and in 3% NaCl solution. Values were extracted from dose-response curves.
Different concentration solutions of peptides, bought or prepared as detailed in the methods section above, were prepared by diluting a stock solution with 1% ACN. Stock solution was prepared by dissolving water soluble peptides in DDW:PBS1:1. PBS (pH=7.4) was prepared by adding to 800 ml DDW, 8 grams NaCl, 0.2 grams KCl, 1.44 grams Na2HPO4 and 0.2 grams KH2PO4.
To evaluate whether attachment of a tether to the AMPs has an effect on the inhibitory potency, a PEGylated peptide (HS-PEG-D-Modelin-1) was prepared, and its inhibitory potency compared to that of the ‘normal’ peptide All-D-Modelin-1. Peptides were diluted in 2-fold serial dilutions, and the antibacterial activity of the peptides was determined in sterile 96-multititter plates.

[1] = peptide in solution, water, 96-microtitter plates, values extracted from dose-response curves

Row | SMILES | IC50 Normal conditions [µg/mL] | IC50 in 3% Aqueous NaCl [µg/mL] | other results
1 | CC(C)C[C@H](NC(=O)[C@H](CCCCN)NC(=O)[C@H](Cc1ccccc1)NC(=O)[C@H](CC(C)C)NC(=O)[C@H](CC(C)C)NC(=O)CNC(=O)[C@H](CCCCN)NC(=O)[C@H](CC(C)C)NC(=O)[C@H](CCCCN)NC(=O)[C@@H]1CCCN1C(=O)[C@H](CC(C)C)NC(=O)[C@H](CC(C)C)NC(=O)[C@H](CC(C)C)NC(=O)[C@H](CCCCN)NC(=O)[C@H](CC(C)C)NC(=O)[C@H](CC(C)C)NC(=O)[C@H](CCCCN)NC(=O)[C@H](Cc1ccc(O)cc1)NC(=O)CNC(=O)CNC(=O)CNC(=O)CNC(=O)[C@@H](N)CS)C(N)=O [CG4-L^6P^9G^13F^16] (H-CGGGGYKLLKLLLPKLKGLLFKL-NH2; N-terminus assumed) | 110 (≈ 44.5 µM) | >300 | –
2 | N=C(N)NCCC[C@H](NC(=O)CCCCCNC(=O)[C@@H](N)CS)C(=O)N[C@@H](CCCNC(=N)N)C(=O)N[C@@H](Cc1c[nH]c2ccccc12)C(=O)N[C@@H](Cc1c[nH]c2ccccc12)C(=O)N[C@@H](CCCNC(=N)N)C(=O)N[C@@H](Cc1ccccc1)C(N)=O [CX-Hexapeptide-4, CXRRWWRF-NH2] (H-C[Ahx]RRWWRF-NH2; N-terminus assumed) | 80 (≈ 65.5 µM) | >300 | –
3 | CC(C)C[C@H](NC(=O)[C@H](CCCCN)NC(=O)CCCCCNC(=O)[C@@H](N)CS)C(=O)N[C@@H](Cc1c[nH]c2ccccc12)C(=O)N[C@@H](CCCCN)C(=O)N[C@@H](CCCCN)C(=O)N[C@@H](Cc1c[nH]c2ccccc12)C(=O)N[C@@H](C)C(=O)N[C@@H](CCCCN)C(=O)N[C@@H](CCCCN)C(=O)N[C@@H](Cc1c[nH]c2ccccc12)C(=O)N[C@@H](CC(C)C)C(=O)N[C@@H](CCCCN)C(=O)N[C@@H](CC(C)C)C(=O)N[C@@H](Cc1c[nH]c2ccccc12)C(=O)N[C@@H](CCCCN)C(=O)N[C@@H](C)C(=O)N[C@@H](Cc1c[nH]c2ccccc12)C(=O)O [CX-Modelin-1, CXKLWKKWAKKWLKLWKAW] (H-C[Ahx]KLWKKWAKKWLKLWKAW-OH; N-terminus assumed) | 60 (≈ 23.6 µM) | – | –
4 | CC[C@H](C)[C@H](NC(=O)[C@H](CCCNC(=N)N)NC(=O)CNC(=O)[C@H](CC(C)C)NC(=O)[C@H](Cc1ccccc1)NC(=O)[C@H](CCCCN)NC(=O)[C@H](CO)NC(=O)[C@H](Cc1ccccc1)NC(=O)[C@H](Cc1c[nH]c2ccccc12)NC(=O)[C@H](CCC(N)=O)NC(=O)[C@@H](NC(=O)[C@H](Cc1ccccc1)NC(=O)CCCCCNC(=O)[C@@H](N)CS)C(C)C)C(=O)N[C@@H](CC(C)C)C(N)=O [CX-Temporin-L, CXFVQWFSKFLGRIL-NH2] (H-C[Ahx]FVQWFSKFLGRIL-NH2) | – | – | IC50 Normal conditions [1]: >300 µg/mL
5 | CC(C)C[C@@H](NC(=O)[C@H](N)CCCCN)C(=O)N[C@H](Cc1c[nH]c2ccccc12)C(=O)N[C@H](CCCCN)C(=O)N[C@H](CCCCN)C(=O)N[C@H](Cc1c[nH]c2ccccc12)C(=O)N[C@H](C)C(=O)N[C@H](CCCCN)C(=O)N[C@H](CCCCN)C(=O)N[C@H](Cc1c[nH]c2ccccc12)C(=O)N[C@H](CC(C)C)C(=O)N[C@H](CCCCN)C(=O)N[C@H](CC(C)C)C(=O)N[C@H](Cc1c[nH]c2ccccc12)C(=O)N[C@H](CCCCN)C(=O)N[C@H](C)C(=O)N[C@H](Cc1c[nH]c2ccccc12)C(=O)O [D-Modelin-1, KLWKKWAKKWLKLWKAW] | – | – | IC50 (repeated assay, D-Modelin-1 (crude) and HS-PEG-D-Modelin-1 prepared in the same synthesis): 3 µg/mL (≈ 1.29 µM)
6 | N=C(N)NCCC[C@H](NC(=O)[C@H](Cc1c[nH]c2ccccc12)NC(=O)[C@H](Cc1c[nH]c2ccccc12)NC(=O)[C@H](CCCNC(=N)N)NC(=O)[C@@H](N)CCCNC(=N)N)C(=O)N[C@@H](Cc1ccccc1)C(N)=O [Hexapeptide-4, RRWWRF-NH2, reference compound] (H-RRWWRF-NH2; N-terminus assumed) | 60 (≈ 59.7 µM) | 100 (≈ 99.5 µM) | –
7 | CC(C)C[C@H](NC(=O)[C@H](CCCCN)NC(=O)[C@H](Cc1ccccc1)NC(=O)[C@H](CC(C)C)NC(=O)[C@H](CC(C)C)NC(=O)CNC(=O)[C@H](CCCCN)NC(=O)[C@H](CC(C)C)NC(=O)[C@H](CCCCN)NC(=O)[C@@H]1CCCN1C(=O)[C@H](CC(C)C)NC(=O)[C@H](CC(C)C)NC(=O)[C@H](CC(C)C)NC(=O)[C@H](CCCCN)NC(=O)[C@H](CC(C)C)NC(=O)[C@H](CC(C)C)NC(=O)[C@H](CCCCN)NC(=O)[C@@H](N)Cc1ccc(O)cc1)C(N)=O [L^6P^9G^13F^16, reference compound] (H-YKLLKLLLPKLKGLLFKL-NH2; N-terminus and C-terminus assumed) | 40 (≈ 18.7 µM) | 300 (≈ 140 µM) | –
8 | CC(C)C[C@H](NC(=O)[C@H](CCCCN)NC(=O)[C@H](CC(C)C)NC(=O)[C@H](Cc1c[nH]c2ccccc12)NC(=O)[C@H](CCCCN)NC(=O)[C@H](CCCCN)NC(=O)[C@H](C)NC(=O)[C@H](Cc1c[nH]c2ccccc12)NC(=O)[C@H](CCCCN)NC(=O)[C@H](CCCCN)NC(=O)[C@H](Cc1c[nH]c2ccccc12)NC(=O)[C@H](CC(C)C)NC(=O)[C@@H](N)CCCCN)C(=O)N[C@@H](Cc1c[nH]c2ccccc12)C(=O)N[C@@H](CCCCN)C(=O)N[C@@H](C)C(=O)N[C@@H](Cc1c[nH]c2ccccc12)C(=O)O [Modelin-1, KLWKKWAKKWLKLWKAW, reference compound] | – | – | IC50 in 3% Aqueous NaCl (peptide in solution, 3% NaCl solution, 96-microtitter plates, values extracted from dose-response curves): 100 µg/mL (≈ 43 µM); IC50 Normal conditions [1]: 20 µg/mL (≈ 8.59 µM)
9 | CC(C)C[C@H](NC(=O)[C@H](CCCCN)NC(=O)CNC(=O)CNC(=O)CNC(=O)CN)C(=O)N[C@@H](Cc1c[nH]c2ccccc12)C(=O)N[C@@H](CCCCN)C(=O)N[C@@H](CCCCN)C(=O)N[C@@H](Cc1c[nH]c2ccccc12)C(=O)N[C@@H](C)C(=O)N[C@@H](CCCCN)C(=O)N[C@@H](CCCCN)C(=O)N[C@@H](Cc1c[nH]c2ccccc12)C(=O)N[C@@H](CC(C)C)C(=O)N[C@@H](CCCCN)C(=O)N[C@@H](CC(C)C)C(=O)N[C@@H](Cc1c[nH]c2ccccc12)C(=O)N[C@@H](CCCCN)C(=O)N[C@@H](C)C(=O)N[C@@H](Cc1c[nH]c2ccccc12)C(=O)O [Peptide G4-Modelin-1] (H-GGGGKLWKKWAKKWLKLWKAW-OH; N-terminus and C-terminus assumed) | 70 (≈ 27.4 µM) | 120 (≈ 46.9 µM) | –
